Data: patent publication US4481192A, “Acid-protease inhibiting peptide derivatives” (SANOFI, priority 1982, dated 1984)
Read-outs that look alike come from different tables or passages of the source. Non-standard residues stand in square brackets, D forms with d. Residues, ends and D or L forms follow the SMILES beside them. *: point of attachment. X1 = COC(=O)C[C@@H](O)[C@H](CC(C)C)N*; Benzylsulfonyl = O=S(=O)(Cc1ccccc1)*; Sta = CC(C)C[C@H](N)[C@@H](O)CC(=O)O; Butanoyl(3,3-Me2) = CC(C)(C)CC(=O)*; X2 = O=C(NCCS(=O)(=O)*)OCc1ccccc1; Isovaleryl = CC(C)CC(=O)*; Nle = CCCC[C@H](N)C(=O)O; Nva = CCC[C@H](N)C(=O)O; Cbz = O=C(OCc1ccccc1)*; Boc = CC(C)(C)OC(=O)*

How the values were obtained:
[1] = target: T1, human plasma renin activity (Homo sapiens, UniProt P00797); assay: Inhibition of the human plasma renin activity (P.R.A.); format: biochemical; details: 37° C., pool of human plasma
T1 construct: the human plasma contain and the substrate: angiotensinogen, and the enzyme: renin; from tissue; host or cells: pool of human plasma
T1 sequence (P00797 67-406): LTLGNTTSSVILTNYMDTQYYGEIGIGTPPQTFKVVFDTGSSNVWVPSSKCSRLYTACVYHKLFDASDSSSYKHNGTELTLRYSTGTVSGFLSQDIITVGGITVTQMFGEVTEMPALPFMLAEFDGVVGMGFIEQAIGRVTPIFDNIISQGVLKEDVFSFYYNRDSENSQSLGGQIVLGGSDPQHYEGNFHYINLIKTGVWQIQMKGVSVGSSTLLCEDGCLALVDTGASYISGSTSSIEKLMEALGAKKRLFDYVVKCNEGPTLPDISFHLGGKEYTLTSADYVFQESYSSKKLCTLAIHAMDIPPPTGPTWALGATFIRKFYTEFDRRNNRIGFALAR
Experimental: The angiotensin I released during the reaction (the human plasma contain and the substrate: angiotensinogen, and the enzyme: renin) is measured by radioimmunological determination using a kit.
Of course, an inhibitor of the enzyme for conversion of the PMSF (phenylmethylsulphonyl fluoride) is added to the incubation medium.
Two types of experiments were carried out:
one at pH 6, which is the optimum pH for the enzyme reaction with human renin (maleate buffer, incubation: 30 minutes), and
the other at pH 7.4, which is the physiological pH (phosphate buffer, incubation: 60 minutes).
(§1) A 10^-3 M stock solution of the peptide is made up in a mixture containing equal volumes of a solution A (19 ml of methanol+1 ml of acetic acid) and a solution B (4 ml of methanol+2 ml of sodium hydroxide solution).
(§2) The subsequent dilutions of the peptide are then prepared in the appropriate buffer in accordance with the procedures described above.

porcine pepsin = porcine pepsin (Sus scrofa, UniProt P00791); assay: Inhibition of porcine pepsin; format: biochemical; details: pH 2, substrate bovine haemoglobin, 37° C.
Experimental: The method used is that of TAKAAKI AOYAGI (J. Antibiotics, 24, pages 687-694, 1971). The substrate used is bovine haemoglobin and the enzyme is porcine pepsin.
0.5% strength haemoglobin is hydrolysed with pepsin (1 mcg/ml) at 37° C. in 0.02M KCl-HCl buffer at pH 2.
Preincubation takes place for 3 minutes, followed by incubation for 25 minutes. After precipitation of the proteins with 1.7M perchloric acid, the optical density of the supernatant is determined on a spectrophotometer at 280 nm.
The results are expressed as the percentage inhibition of the maximum optical density obtained in the absence of inhibitor. They are also expressed as an IC50.
as §1, §2

[2] = pH 6, maleate buffer, incubation 30 minutes, read-out: INHIBITION OF HUMAN P.R.A. (IC50) pH 6
[3] = pH 7.4, phosphate buffer, incubation 60 minutes, read-out: INHIBITION OF HUMAN P.R.A. (IC50) pH 7.4

Sequence of porcine pepsin (P00791 60-385): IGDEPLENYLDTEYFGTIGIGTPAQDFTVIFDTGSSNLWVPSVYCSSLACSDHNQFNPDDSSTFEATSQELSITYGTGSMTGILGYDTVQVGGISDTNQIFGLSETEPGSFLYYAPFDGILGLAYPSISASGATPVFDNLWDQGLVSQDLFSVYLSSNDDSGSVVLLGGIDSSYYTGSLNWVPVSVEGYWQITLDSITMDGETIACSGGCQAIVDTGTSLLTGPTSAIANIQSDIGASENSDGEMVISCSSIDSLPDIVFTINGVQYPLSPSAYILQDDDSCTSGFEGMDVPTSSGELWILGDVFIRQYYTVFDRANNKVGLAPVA

Compound | IC50 [1, 2] | IC50 [1, 3] | IC50 (porcine pepsin)
CCC[C@H](NC(=O)[C@H](Cc1ccccc1)NC(=O)OC(C)(C)C)C(=O)N[C@@H](CC(C)C)[C@@H](O)CC(=O)N[C@@H](C)C(=O)N[C@@H](CC(C)C)[C@@H](O)CC(=O)OC [SR 41996, Boc--Phe--Nva--Sta--Ala--Sta--OMe] (Boc-F[Nva][Sta]A[Sta]-OMe) | 0.0011 nM | 51 nM | 
COC(=O)C[C@H](O)[C@H](CC(C)C)NC(=O)[C@H](C)NC(=O)C[C@H](O)[C@H](CC(C)C)NC(=O)[C@H](Cc1ccccc1)NC(=O)[C@@H](Cc1ccccc1)NC(=O)OC(C)(C)C [SR 41518, Boc--(D)Phe--Phe--Sta--Ala--Sta--OMe] (Boc-[dF]F[Sta]A[Sta]-OMe) | 950 nM |  | 480 nM
CC[C@H](C)[C@H](NC(=O)[C@H](Cc1ccccc1)NC(=O)OCc1ccccc1)C(=O)N[C@@H](CC(C)C)[C@@H](O)CC(=O)N[C@@H](C)C(=O)N[C@@H](CC(C)C)[C@@H](O)CC(=O)OC [SR 41477, Z--Phe--ILe--Sta--Ala--Sta--OMe] (Cbz-FI[Sta]A[Sta]-OMe) | 35 nM | 1000 nM | 38 nM
COC(=O)C[C@H](O)[C@H](CC(C)C)NC(=O)[C@H](C)NC(=O)C[C@H](O)[C@H](CC(C)C)NC(=O)[C@H](Cc1ccccc1)NC(=O)[C@H](Cc1ccccc1)NC(=O)CC(C)(C)C [SR 42256, t--BuAc--Phe--Phe--Sta--Ala--Sta--OMe] ({Butanoyl(3,3-Me2)}-FF[Sta]A[Sta]-OMe) | 26 nM | 480 nM | 27 nM
CCC[C@H](NC(=O)[C@H](Cc1ccccc1)NC(C)=O)C(=O)N[C@@H](CC(C)C)[C@@H](O)CC(=O)N[C@@H](C)C(=O)N[C@@H](CC(C)C)[C@@H](O)CC(=O)OC [SR 41994, Ac--Phe--Nva--Sta--Ala--Sta--OMe] (Ac-F[Nva][Sta]A[Sta]-OMe) | 0.76 nM | 260 nM | 13 nM
COC(=O)C[C@H](O)[C@H](CC(C)C)NC(=O)[C@H](C)NC(=O)C[C@H](O)[C@H](CC(C)C)NC(=O)[C@H](CC(C)C)NC(=O)[C@H](Cc1ccccc1)NC(=O)CC(C)C [SR 41765, iVa--Phe--Leu--Sta--Ala--Sta--OMe] (Isovaleryl-FL[Sta]A[Sta]-OMe) | 0.33 nM | 75 nM | 8 nM
CC[C@H](C)[C@H](NC(=O)OC(C)(C)C)C(=O)N[C@@H](Cc1c[nH]cn1)C(=O)N[C@@H](CC(C)C)[C@@H](O)CC(=O)N[C@@H](C)C(=O)N[C@@H](CC(C)C)[C@@H](O)CC(=O)OC [SR 42019, Boc--Ile--His--Sta--Ala--Sta--OMe] (Boc-IH[Sta]A[Sta]-OMe) | 110 nM |  | 73 nM
COC(=O)C[C@H](O)[C@H](CC(C)C)NC(=O)[C@H](C)NC(=O)C[C@H](O)[C@H](CC(C)C)NC(=O)[C@H](Cc1c[nH]c2ccccc12)NC(=O)[C@H](Cc1ccccc1)NC(=O)OCc1ccccc1 [SR 41416, Z Phe--Trp--Sta--Ala--Sta--OMe] (Cbz-FW[Sta]A[Sta]-OMe) | 80 nM | 1400 nM | 65 nM
COC(=O)C[C@H](O)[C@H](CC(C)C)NC(=O)[C@H](C)NC(=O)C[C@H](O)[C@H](CC(C)C)NC(=O)[C@H](Cc1ccccc1)NC(=O)[C@H](Cc1ccccc1)NS(=O)(=O)Cc1ccccc1 [SR 41939, C6 H5 CH2 SO2 --Phe--Phe--Sta--Ala--Sta--OCH3] (Benzylsulfonyl-FF[Sta]A[Sta]-OMe) | 17 nM | 880 nM | 36 nM
COC(=O)C[C@H](O)[C@H](CC(C)C)NC(=O)[C@H](C)NC(=O)C[C@H](O)[C@H](CC(C)C)NC(=O)[C@@H](NC(=O)[C@@H](Cc1ccccc1)NC(=O)OC(C)(C)C)C(C)C [SR 41377, Boc--(D)Phe--Val--Sta--Ala--Sta--OCH3] (Boc-[dF]V[Sta]A[Sta]-OMe) |  |  | 47 nM
COC(=O)C[C@@H](O)[C@H](CC(C)C)NC(=O)[C@H](C)NC(=O)C[C@H](O)[C@H](CC(C)C)NC(=O)[C@H](Cc1ccccc1)NC(=O)[C@H](Cc1ccccc1)NC(=O)CC(C)C [SR 41766, iVa--Phe--Phe--Sta--Ala--isoSta--OMe] (Isovaleryl-FF[Sta]A-X1) | 14 nM | 420 nM | 58 nM
COC(=O)C[C@H](O)[C@H](CC(C)C)NC(=O)[C@H](C)NC(=O)C[C@H](O)[C@H](CC(C)C)NC(=O)[C@H](C)NC(=O)[C@H](Cc1ccccc1)NC(=O)CC(C)C [SR 42258, iVa--Phe--Ala--Sta--Ala--Sta--OMe] (Isovaleryl-FA[Sta]A[Sta]-OMe) | 9 nM | 470 nM | 18 nM
COC(=O)C[C@H](O)[C@H](CC(C)C)NC(=O)[C@H](C)NC(=O)C[C@H](O)[C@H](CC(C)C)NC(=O)[C@H](CCCCNC(=O)OCc1ccccc1)NC(=O)[C@H](Cc1ccccc1)NC(=O)CC(C)C [SR 42130, iVa--Phe--Lys(Z)--Sta--Ala--Sta--OMe] (Isovaleryl-FK(Cbz)[Sta]A[Sta]-OMe) | 52 nM | 2600 nM | 27 nM
CC(C)C[C@H](NC(=O)[C@H](C)NC(=O)C[C@H](O)[C@H](CC(C)C)NC(=O)[C@@H](NC(=O)[C@@H](Cc1ccccc1)NC(=O)OC(C)(C)C)C(C)C)[C@@H](O)CC(=O)O [SR 41491, Boc--(D)Phe--Val--Sta--Ala--Sta--OH] (Boc-[dF]V[Sta]A[Sta]-OH) | 260 nM | 4000 nM | 22 nM
CCCC[C@H](NC(=O)[C@H](Cc1ccccc1)NC(=O)CC(C)C)C(=O)N[C@@H](CC(C)C)[C@@H](O)CC(=O)N[C@@H](C)C(=O)N[C@@H](CC(C)C)[C@@H](O)CC(=O)O [SR 42128, iVa--Phe--Nle--Sta--Ala--Sta--OH] (Isovaleryl-F[Nle][Sta]A[Sta]-OH) |  |  | 19 nM
COC(=O)C[C@H](O)[C@H](CC(C)C)NC(=O)[C@H](C)NC(=O)C[C@H](O)[C@H](CC(C)C)NC(=O)[C@H](Cc1ccccc1)NC(=O)[C@H](Cc1ccccc1)NC(=O)OCc1ccccc1 [SR 41320, Z--Phe--Phe--Sta--Ala--Sta--OMe] (Cbz-FF[Sta]A[Sta]-OMe) | 17 nM | 3500 nM | 30 nM
CCC[C@H](NC(=O)[C@H](Cc1ccccc1)NC(=O)CC(C)C)C(=O)N[C@@H](CC(C)C)[C@@H](O)CC(=O)N[C@@H](C)C(=O)N[C@@H](CC(C)C)[C@@H](O)CC(=O)OC [SR 41995, iVa--Phe--Nva--Sta--Ala--Sta--OMe] (Isovaleryl-F[Nva][Sta]A[Sta]-OMe) | 0.03 nM | 42 nM | 16 nM
COC(=O)C[C@H](O)[C@H](CC(C)C)NC(=O)[C@H](C)NC(=O)C[C@H](O)[C@H](CC(C)C)NC(=O)[C@H](Cc1ccccc1)NC(=O)[C@H](Cc1ccccc1)NC(=O)CC(C)C [SR 41764, iVa--Phe--Phe--Sta--Ala--Sta--OMe] (Isovaleryl-FF[Sta]A[Sta]-OMe) | 12 nM | 310 nM | 42 nM
COC(=O)C[C@H](O)[C@H](CC(C)C)NC(=O)[C@H](C)NC(=O)C[C@H](O)[C@H](CC(C)C)NC(=O)[C@H](Cc1c[nH]cn1)NC(=O)[C@H](Cc1ccccc1)NS(=O)(=O)CCNC(=O)OCc1ccccc1 [SR 41748, Z--Tau--Phe--His--Sta--Ala--Sta--OCH3] (X2-FH[Sta]A[Sta]-OMe) | 2.2 nM | 110 nM | 620 nM
